This note sets out measurements from patent publication US12357598B2, “Treatment of neurodevelopmental disorders” (THE REGENTS OF THE UNIVERSITY OF CALIFORNIA, priority 2018, dated 2025).

Holding throughout (assay type): in vivo, mouse
Series [1] in a line: Measurement of glyphosate in the blood (LC/MS/MS). Conditions: mothers treated with 0.095% glyphosate E5-P21 and their offspring. The method, then: Measurement of glyphosate in the blood. Water or 0.095% glyphosate was given to pregnant mice from E5 to P21, as described above. At weaning (P21), mothers and male offspring mice were deeply anesthetized with isoflurane and plasma was collected. The plasma samples were stored at −80° C. before assay. Measurement of glyphosate in the plasma was performed using LC/MS/MS at UC Davis.
The 40 μL of internal standard (2 μg/mL of glyphosate-2-^13C solution in methanol) and 40 μL of methanol were added to 20 μL of plasma. The spiked sample was vortexed for 5 minutes and then centrifuged at […] for another 5 minutes. The supernatants were transferred for the followed LC/MS/MS measurement, which uses Waters Acquity UPLC system (Waters, Milford, MA) interfaced with a QTRAP 6500+ mass spectrometer (Sciex, Redwood City, CA) using electrospray source. The separation was achieved on a Waters Acquity BEH C18 50×2.1 mm 1.7 μm column with mobile phases of water with 0.1% of formic acid as mobile phase A and acetonitrile with 0.1% of formic acid as mobile phase B. The gradient was shown in Table 10. All the parameters on the mass spectrometer were optimized with pure standards of glyphosate and glyphosate-2-^13C (purchased from Millipore Sigma, Burlington MA) under positive MRM mode.

A further series relates to gut microbiota. In words: 16S rRNA analysis of fecal samples after maternal glyphosate exposure. The note with it: juvenile offspring (P28). The method, then:
16S rRNA analysis and measurement of short-chain fluty acids of fecal samples. On P28, we collected fresh fecal samples from each mouse at around 10:00 in order to avoid circadian effects on the microbiome. The fecal samples were put into a sterilized screw cap microtube immediately after defecation, and these samples were stored at −80° C. until use. DNA extraction from mouse feces and 16S rRNA analysis of fecal samples were performed by MyMetagenome Co, Ltd. (Tokyo, Japan), as reported previously (20,21).

Another series has as its system ddY mice. Briefly: NORT, offspring after maternal glyphosate exposure. The note with it: juvenile offspring, maternal 0.095% glyphosate. The method, then:
Novel Object Recognition Test (NORT): Mice were habituated for 10 minutes in the test box for 3 straight days. At 4th day, two objects (differing in shape and color but of similar size) were placed in the box 35.5 cm apart (symmetrically), and each animal was allowed to explore in the box for 5 minutes. The animals were considered to be exploring the object when the head of the animal was both facing and within 2.54 cm of the object or when any part of the body, except for the tail was touching the object. The time that mice spent exploring each object was recorded. After training, mice were immediately returned to their home cages, and the box and objects were cleaned with 75% ethanol, to avoid any possible instinctive odorant cues. Retention tests were carried out at one-day intervals, following the respective training. During the retention test, each mouse was reintroduced into their original test box, and one of the training objects was replaced by a novel object. The mice were then allowed to explore freely for 5 minutes, and the time spent exploring each object was recorded. Throughout the experiments, the objects were counter-balanced, in terms of their physical complexity and emotional neutrality. […]

Another series relates to sEH. Briefly: Western blot of sEH in brain regions after maternal glyphosate exposure. From the text: Collection of blood and brain samples and oxylipin analysis. Water or 0.095% glyphosate was given to pregnant mice from E5 to P21, as described above. The male offspring were separated from their mothers at weaning (P21). At juvenile (P28) stage, mice were deeply anesthetized with isoflurane and plasma was collected. Subsequently, brains were removed from the skulls. For Western blot analysis, brain regions such as prefrontal cortex (PFC), hippocampus, and striatum, were dissected from brain on ice. The samples were stored at −80° C. before assay. For oxylipin analysis, plasma was collected after isoflurane anesthesia at juvenile (P28) stage. Subsequently, PFC, hippocampus, and striatum were dissected from brain on ice, and the samples were stored at −80° C. before assay. […]
Western blot analysis. […] 50 μg of protein were measured using the DC protein assay kit (Bio-Rad), and incubated for 5 min at 95° C., with an equal volume of 125 mM Tris-HCl, pH6.8, 20% glycerol, 0.1% bromophenol blue, 10% β-mercaptoethanol, 4% sodium dodecyl sulfate, and subjected to sodium dodecyl sulfate polyacrylamide gel electrophoresis, using 7.5% or AnyKD mini-gels (Mini-PROTEAN® TGX™ Precast Gel; Bio-Rad, CA, USA). […] After final three washes with TBST, bands were detected using enhanced chemiluminescence (ECL) prime Western Blotting Detection system (GE Healthcare Bioscience). […]

The next series relates to Ephx2 mRNA. Briefly: Quantitative RT-PCR of Ephx2 mRNA in brain regions of juvenile offspring after MIA. The note with it: juvenile offspring of poly(I:C)-treated mice vs saline-treated mice. From the text:
Gene expression analysis by quantitative real-time PCR. At juvenile (P28) stage, mice were sacrificed, and their brains were removed for measurement of gene expression of Ephx2 mRNA. Brain regions such as PFC, striatum, CA1, CA3 and DG of the hippocampus were dissected from brain on ice using a Leica microscope S9E (Leica Microsystems, Tokyo, Japan). A quantitative RT-PCR system (Step One Plus, Thermo Fisher Scientific, Yokohama, Japan) was used to measure mRNAs. The specific mRNA transcripts were quantified by TaqManGene Expression assays (Thermo Fisher Scientific, Yokohama, Japan). Expression levels of Ephx2 (Mm01313813_m1) was measured in brain tissue. Total RNA was extracted by use of an RNeasy Mini Kit (Qiagen, Hilden, Germany). The purity of total RNA was assessed by Biophotometer plus (Eppendorf, Hamburg, Germany). The RNA samples were used in the first strand cDNA synthesis with High Capacity cDNA Reverse Transcription Kit (#4368813 Thermo Fisher Scientific, Yokohama, Japan). All samples were tested in triplicate and average values were used for quantification. The average values were normalized to Vic-labeled Actb mRNA (Cat #4352341E: pre-developed TaqMan Assay Reagents, Thermo Fisher Scientific, Yokohama, Japan).

With `O=C(O)CNCP(=O)(O)O` [glyphosate], in series [1], the “blood levels of glyphosate on P21 (weaning)” value is “could detect”. In the series on gut microbiota (maternal glyphosate exposure), the “composition of gut microbiota” value was “abnormal composition”. For the same compound, in the series on gut microbiota (vs water-treated group), the “relative abundance of Clostridium sp. Clone-1, Enterorhabdus muris, Clostridium sp. Clone-46, and Butyricimonas virosa” value was “significantly higher”; the “relative abundance of Eubacterium plexicaudatum, Lachnospiraceae bacterium 538, and Clostridium tertium” value was “significantly lower”. In addition, the “novel object recognition test (NORT)” value in the series on ddY mice is “cognitive deficits”. Besides, the “protein levels of sEH in the PFC, hippocampus, and striatum” value in the series with sEH (juvenile offspring (P28) after maternal glyphosate exposure vs water) is reported as “significantly higher”. For the same compound, the “protein levels of sEH in the PFC and striatum of mothers” value in the series with sEH (mothers treated with glyphosate vs water-treated mice) was “significantly higher”.
“polyriboinosinic-polyribocytidilic acid [Poly(I:C)]”: the “expression of sEH (or Ephx2) mRNA in the PFC” value in the series with Ephx2 mRNA is “significantly higher”.
